The target in data set [1] is T1, P-gp (Homo sapiens, UniProt P08183). In words: Bidirectional transport assay of single components (substrate assay), with or without verapamil. It is filed as in vitro ADME. The settings on record: dog; for efflux ratio at 2 h: n = 3, read-out: ER (efflux ratio); for Papp A→B at 2 h / Papp B→A at 2 h: n = 3. How it is done:
(§1) Before experiments, cell monolayers were washed twice with HBSS and equilibrated with HBSS for 30 min at 37 °C. HBSS containing different components was added to either the apical or basolateral chamber (donor chamber), and blank HBSS was added to the opposite chamber (receiver chamber). The total volume is 0.5 mL in the apical chamber and 1.5 mL in the basolateral chamber. Aliquots (100 μL) were taken from the acceptor chamber every 30 min for 2 h, and the same volume of HBSS was replenished. The transport samples were prepared using solid-phase extraction (SPE). Bond Elut C18 cartridge (Agilent, Santa Clara, CA, USA, 100 mg, 1 mL, 100/pk) was preconditioned with 1 mL methanol and 1 mL deionized water. Both 100 μL of bidirectional assay sample solution and 20 μL of IS solution was loaded onto the SPE cartridge, and the eluent that passed through the SPE cartridge was discarded. After washing with 1 mL of deionized water, 1 mL of the eluent solvent was introduced into the SPE cartridge for collection. The target solutions were concentrated by nitrogen blowing and re-dissolved. The amount of seven constituents of AR was determined by LC-MS/MS. The apparent permeability (Papp) of each substrate across MDCK-MDR1 cell monolayers in both the basolateral to apical (B > A) and apical to basolateral (A > B) directions were calculated using the following formula: […]

Data set [2] has as its target T1, P-gp. In words: Bidirectional transport assay of AR extract (seven components quantified). It is filed as in vitro ADME. The settings on record: dog; for Papp A→B at 2 h / Papp B→A at 2 h: component given as AR extract (10 mg/mL in HBSS). The procedure:
as §1, with “The HBSS containing 10 mg/mL AR extract was prepared. Before” for “Before”, “AR extract” for “different components”

Data set [3] concerns the target T1, P-gp. Kind of data set: Bidirectional transport assay of Rh-123 (P-gp inhibition). It is filed as cell-based. The following applies: for Papp (AP-BL) of rhodamine-123 in combination with the compound / Papp (BL-AP) of rhodamine-123 in combination with the compound: dog, MDCK-MDR1, 120 min. The procedure: The HBSS containing 10 μM Rh-123 and different AR components as described in the above Section 4.6.1 were prepared. Additionally, The HBSS containing 10 μM Rh-123 and 0.625 μM valspodar were prepared as the positive control. Before experiments, cell monolayers were washed twice with HBSS and equilibrated with HBSS for 30 min at 37 °C. HBSS containing AR component and Rh-123 was added to either the apical or basolateral chamber (donor chamber), and HBSS containing AR component was added to the opposite chamber (receiver chamber). The total volume is 0.5 mL in the apical chamber and 1.5 mL in the basolateral chamber. Aliquots (100 μL) were taken from the acceptor chamber at 15 min, 30 min, 60 min, 90 min, and 120 min, and the same volume of blank HBSS was replenished. The positive control group was treated as above. The apparent permeability (Papp) of each substrate across MDCK-MDR1 cell monolayers in both the basolateral to apical (B > A) and apical to basolateral (A > B) directions were calculated using the following formula: […]

Data set [4] relates to MDCK-MDR1 monolayer cell model. In words: Permeability assay validating the MDCK-MDR1 monolayer cell model. The class given is in vitro ADME. The following applies: in 120 min. The text has this:
In this study, an MDCK-MDR1 monolayer cell model was established.

Where [5] appears, read: MDCK-MDR1, Single Component Group, Papp(BL-AP)/Papp(AP-BL).
Where [6] appears, read: MDCK-MDR1, with verapamil (concentration not stated), Single Component + Verapamil Group.
Setting [7] is: Single Component Group, MDCK-MDR1, 2.0 µM TAIII, 1.6 μM TBII, 4.7 μM MGF, 4.7 μM IMGF, 3.4 μM NMGF, 1.2 μM SSG, 3.9 μM BHI.
The mark [8] stands for this setting: Single Component Group, MDCK-MDR1.
The mark [9] stands for this setting: MDCK-MDR1, AR Extract Group, n = 3, read-out: ER (efflux ratio).
[10] abbreviates: MDCK-MDR1, Single Component + Verapamil Group.

Results on eight compounds are retold here after article PMC9740098, “In Vitro Evaluation of the Interaction of Seven Biologically Active Components in Anemarrhenae rhizoma with P-gp” (Molecules, 2022).

A value given as a limit tells only on which side of the number the result lay.

T1 sequence (P08183 whole entry): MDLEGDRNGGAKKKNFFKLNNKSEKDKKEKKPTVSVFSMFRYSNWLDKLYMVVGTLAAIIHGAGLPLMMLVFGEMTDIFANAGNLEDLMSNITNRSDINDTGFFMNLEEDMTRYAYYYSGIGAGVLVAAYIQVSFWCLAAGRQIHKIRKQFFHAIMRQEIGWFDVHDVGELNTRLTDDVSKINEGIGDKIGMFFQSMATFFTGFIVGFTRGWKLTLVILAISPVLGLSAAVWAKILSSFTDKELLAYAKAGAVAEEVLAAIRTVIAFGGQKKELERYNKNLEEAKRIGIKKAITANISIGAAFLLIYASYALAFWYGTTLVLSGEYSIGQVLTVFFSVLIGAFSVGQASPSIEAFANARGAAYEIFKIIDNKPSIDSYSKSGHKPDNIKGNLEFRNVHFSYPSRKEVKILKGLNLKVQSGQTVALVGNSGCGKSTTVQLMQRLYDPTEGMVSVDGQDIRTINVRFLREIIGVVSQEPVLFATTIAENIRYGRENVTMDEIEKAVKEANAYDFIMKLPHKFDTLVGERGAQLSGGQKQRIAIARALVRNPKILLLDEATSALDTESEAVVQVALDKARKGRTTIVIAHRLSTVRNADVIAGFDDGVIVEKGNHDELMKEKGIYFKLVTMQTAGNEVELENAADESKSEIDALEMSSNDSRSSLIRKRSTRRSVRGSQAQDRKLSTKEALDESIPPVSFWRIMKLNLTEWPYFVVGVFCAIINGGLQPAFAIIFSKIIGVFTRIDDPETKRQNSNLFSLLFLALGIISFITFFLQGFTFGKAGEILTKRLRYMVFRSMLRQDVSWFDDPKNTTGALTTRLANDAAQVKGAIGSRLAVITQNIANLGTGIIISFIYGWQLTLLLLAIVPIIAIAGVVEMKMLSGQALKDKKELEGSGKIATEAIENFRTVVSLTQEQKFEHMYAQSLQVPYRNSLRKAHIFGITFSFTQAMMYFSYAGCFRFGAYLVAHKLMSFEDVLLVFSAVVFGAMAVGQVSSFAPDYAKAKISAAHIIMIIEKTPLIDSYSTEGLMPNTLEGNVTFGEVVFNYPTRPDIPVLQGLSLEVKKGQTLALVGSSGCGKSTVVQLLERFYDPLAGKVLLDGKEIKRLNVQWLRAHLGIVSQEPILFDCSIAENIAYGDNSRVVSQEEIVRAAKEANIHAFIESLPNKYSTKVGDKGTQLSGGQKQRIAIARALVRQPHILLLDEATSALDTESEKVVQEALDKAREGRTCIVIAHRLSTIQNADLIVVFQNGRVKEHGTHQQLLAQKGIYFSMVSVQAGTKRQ

Turning to `COc1ccc(-c2oc3c(CC=C(C)C)c(O)cc(O)c3c(=O)c2O[C@@H]2O[C@@H](C)[C@H](O)[C@@H](O)[C@H]2O)cc1` [BHI, baohuoside I], the efflux ratio at 2 h on P-gp [1] (setting [5]) stood at 2.26; at P-gp [1] (setting [6]), 1.08. The Papp A→B at 2 h was 0.24 ×10⁻⁶ cm/s on P-gp [1] (setting [7]) and 0.155 ×10⁻⁶ cm/s on P-gp [2] (MDCK-MDR1, n = 3). Moreover, the Papp B→A at 2 h is 0.72 ×10⁻⁶ cm/s on P-gp [1] (setting [8]) and 0.298 ×10⁻⁶ cm/s at P-gp [2] (MDCK-MDR1, n = 3). For the same compound, the “Papp (AP-BL) of rhodamine-123 in combination with the compound” value (“Papp (AP-BL)” below) at P-gp [3] turned out to be 1.73 ×10⁻⁶ cm/s. Also, the “Papp (BL-AP) of rhodamine-123 in combination with the compound” value (“Papp (BL-AP)” for short) on P-gp [3] is 2.53 ×10⁻⁶ cm/s.

`O=c1c2cc(O)c(O)cc2oc2c([C@@H]3O[C@H](CO)[C@@H](O)[C@H](O)[C@H]3O)c(O)cc(O)c12` [IMGF, isomangiferin]: the efflux ratio at 2 h was < 2 on P-gp [1] (setting [5]), 0.55 on P-gp [1] (setting [6]) and 0.91 on P-gp [2] (setting [9]). Further, the Papp A→B at 2 h at P-gp [1] (setting [7]) was 0.0651 ×10⁻⁶ cm/s; on P-gp [2] (MDCK-MDR1, n = 3), 0.0546 ×10⁻⁶ cm/s. The Papp B→A at 2 h at P-gp [1] (setting [8]) worked out at 0.0702 ×10⁻⁶ cm/s; on P-gp [2] (MDCK-MDR1, n = 3), 0.0495 ×10⁻⁶ cm/s.

For the compound `O=c1c2cc(O)c(O)cc2oc2cc(O)c([C@@H]3O[C@H](CO)[C@@H](O)[C@H](O)[C@H]3O)c(O)c12` [MGF, mangiferin], the results for the efflux ratio at 2 h on P-gp [1] (setting [5]), on P-gp [1] (setting [6]) and at P-gp [2] (setting [9]) were > 2, 0.53 and 0.48, respectively. Besides, the Papp A→B at 2 h turned out to be 0.606 ×10⁻⁶ cm/s at P-gp [1] (setting [7]) and 0.586 ×10⁻⁶ cm/s at P-gp [2] (MDCK-MDR1, n = 3). The Papp B→A at 2 h at P-gp [1] (setting [8]) came out at 1.35 ×10⁻⁶ cm/s; at P-gp [2] (MDCK-MDR1, n = 3), 0.283 ×10⁻⁶ cm/s. For the same compound, at P-gp [3], the “Papp (AP-BL)” value came to 1.88 ×10⁻⁶ cm/s. For the same compound, at P-gp [3], the “Papp (BL-AP)” value came to 2.36 ×10⁻⁶ cm/s.

For the compound `O=c1c2cc(O[C@@H]3O[C@H](CO)[C@@H](O)[C@H](O)[C@H]3O)c(O)cc2oc2cc(O)c([C@@H]3O[C@H](CO)[C@@H](O)[C@H](O)[C@H]3O)c(O)c12` [NMGF, neomangiferin], the figures for the efflux ratio at 2 h at P-gp [1] (setting [5]), on P-gp [1] (setting [6]) and on P-gp [2] (setting [9]) were < 2, 0.52 and 0.67, respectively. The Papp A→B at 2 h came to 0.121 ×10⁻⁶ cm/s at P-gp [1] (setting [7]) and 0.0976 ×10⁻⁶ cm/s on P-gp [2] (MDCK-MDR1, n = 3). Besides, the Papp B→A at 2 h on P-gp [1] (setting [8]) was 0.137 ×10⁻⁶ cm/s; on P-gp [2] (MDCK-MDR1, n = 3), 0.0654 ×10⁻⁶ cm/s.

For `C[C@H]1CC[C@@]2(OC1)O[C@H]1C[C@H]3[C@@H]4CC[C@@H]5C[C@@H](O)CC[C@]5(C)[C@H]4CC[C@]3(C)[C@H]1[C@@H]2C` [SSG, sarsasapogenin], the Papp A→B at 2 h was 0.0904 ×10⁻⁶ cm/s at P-gp [1] (setting [10]); 0.0374 ×10⁻⁶ cm/s at P-gp [1] (MDCK-MDR1, Single Component Group, 2.0 µM TAIII, 1.6 μM TBII, 4.7 μM MGF, 4.7 μM IMGF, 3.4 μM NMGF, 1.2 μM SSG, 3.9 μM BHI); 0.0398 ×10⁻⁶ cm/s at P-gp [2] (MDCK-MDR1, n = 3). Also, the Papp B→A at 2 h was determined as 0.0374 ×10⁻⁶ cm/s at P-gp [1] (setting [10]); 0.0566 ×10⁻⁶ cm/s on P-gp [1] (MDCK-MDR1, Single Component Group); 0.0347 ×10⁻⁶ cm/s on P-gp [2] (MDCK-MDR1, n = 3). For the same compound, the efflux ratio at 2 h on P-gp [1] (setting [10]) is 0.41; at P-gp [1] (setting [5]), < 2; on P-gp [2] (AR Extract Group, MDCK-MDR1, n = 3, read-out: ER (efflux ratio)), 0.87. The “ER (efflux ratio) of rhodamine-123 in combination with the compound” value at P-gp [3] (10 μM Rh-123 with AR component or 0.625 μM valspodar, control ER 2.46, MDCK-MDR1, n = 3) is given as “no statistical difference”.

Consider `C[C@H]1CC[C@@]2(OC1)O[C@H]1C[C@H]3[C@@H]4CC[C@@H]5C[C@@H](O[C@@H]6O[C@H](CO)[C@H](O)[C@H](O)[C@H]6O[C@@H]6O[C@H](CO)[C@@H](O)[C@H](O)[C@H]6O)CC[C@]5(C)[C@H]4CC[C@]3(C)[C@H]1[C@@H]2C` [TAIII, timosaponin AIII], for which the efflux ratio at 2 h was > 2 on P-gp [1] (setting [5]), 0.88 on P-gp [1] (setting [6]) and 0.63 at P-gp [2] (setting [9]). Besides, the Papp A→B at 2 h at P-gp [1] (setting [7]) amounted to 0.955 ×10⁻⁶ cm/s; on P-gp [2] (MDCK-MDR1, n = 3) it was 3.05 ×10⁻⁶ cm/s. In addition, the Papp B→A at 2 h amounted to 2.16 ×10⁻⁶ cm/s at P-gp [1] (setting [8]) and 1.94 ×10⁻⁶ cm/s on P-gp [2] (MDCK-MDR1, n = 3). Moreover, on P-gp [3], the “Papp (AP-BL)” value was found to be 1.78 ×10⁻⁶ cm/s. The “Papp (BL-AP)” value at P-gp [3] turned out to be 2.17 ×10⁻⁶ cm/s.

Take `C[C@@H](CC[C@@]1(O)O[C@H]2C[C@H]3[C@@H]4CC[C@@H]5C[C@@H](O[C@@H]6O[C@H](CO)[C@H](O)[C@H](O)[C@H]6O[C@@H]6O[C@H](CO)[C@@H](O)[C@H](O)[C@H]6O)CC[C@]5(C)[C@H]4CC[C@]3(C)[C@H]2[C@@H]1C)CO[C@@H]1O[C@H](CO)[C@@H](O)[C@H](O)[C@H]1O` [TBII, timosaponin BII]: the efflux ratio at 2 h at P-gp [1] (setting [5]) was > 2; at P-gp [1] (setting [6]) it was 0.65; on P-gp [2] (setting [9]), 0.83. Besides, the Papp A→B at 2 h on P-gp [1] (setting [7]) amounted to 0.719 ×10⁻⁶ cm/s; at P-gp [2] (MDCK-MDR1, n = 3) it was 1.81 ×10⁻⁶ cm/s. For the same compound, the Papp B→A at 2 h at P-gp [1] (setting [8]) amounted to 1.67 ×10⁻⁶ cm/s; at P-gp [2] (MDCK-MDR1, n = 3), 1.5 ×10⁻⁶ cm/s. Moreover, the “Papp (AP-BL)” value at P-gp [3] amounted to 1.85 ×10⁻⁶ cm/s. Moreover, the “Papp (BL-AP)” value at P-gp [3] turned out to be 2.34 ×10⁻⁶ cm/s.

Regarding `O=C([O-])c1ccccc1-c1c2ccc(=O)cc-2oc2cc([O-])ccc12.[Na+].[Na+]` [fluorescein sodium], the Pe value in data set [4] is recorded as 0.78 ± 0.02 × 10^−6 cm/s.

Broadly, the Papp A→B is how fast a substance crosses the layer from the apical side. In general, Papp B→A refers to how fast a substance crosses the layer from the basolateral side.
